How the values were obtained:
[1] = system: CTLL-2 cells; assay: suppression of proliferation of IL-2-dependent mouse cell line CTLL-2 induced by IL-2; assay type: cell-based; conditions: IL-2 50 U/ml, Table 6B
Description: IL-2-dependent mouse cell line CTLL-2 cells were suspended in the RPMI1640 culture medium supplemented with 30% FCS to the concentration of 4×10^5 cells/ml. Fifty μl of the cell suspension, 50 μl of 200 U/ml recombinant human IL-2 (rhIL-2) and 100 μl of the test substance were added to a 96-well flat-bottomed microtest plate. […] The percent suppression (%) was calculated by the following formula. [formula]

[2] = system: IL-3 production in PHA-stimulated mouse spleen cells; assay: suppression of IL-3 production in PHA-stimulated mouse spleen cells; assay type: cell-based
Description: The suppression of IL-2 and IL-3 production in the mitogen-stimulated mouse spleen cells was examined as follows:
The spleen was resected from 5- to 8-week-old male C3H/HeN mice, and a single cell suspension of spleen cells was prepared by using the RPMI1640 culture medium. After hemolytic treatment, the concentration of the suspension was adjusted to 10^7 cells/ml by using the RPMI1640 culture medium supplemented with 20% FCS, to which 10 μg/ml of phytohemagglutinin (PHA) was added as mitogen. […] After termination of culture, the supernatant was collected and used as the culture supernatant of PHA-stimulated mouse spleen cells.
The IL-3 activity was assayed as follows:
IL-3-dependent mouse cell line FDC-P2 cells were suspended in the RPMI1640 culture medium supplemented with 10% FCS to the concentration of 2×10^5 cells/ml. One hundred μl of the cell suspension and 100 μl of the two-fold serial dilution of the culture supernatant of PHA-stimulated mouse spleen cells described above were added to a 96-well flat-bottomed microtest plate. […] The IL-3 activity is expressed in U/ml as the dilution at which the absorbancy measured by MTT method was 50% of the maximum.

[3] = system: allo-reactive cytotoxic T cells in spleen of EL4-immunized BALB/c mice; assay: suppression of allo-reactive cytotoxic T cells induced by immunization of mouse with allogenic cells; assay type: in vivo
Description: Male 5- to 7-week-old BALB/c mice (H-2^d) were immunized with leukemia cell EL4 derived from C57BL/6 mice (H-2^b) (10^7 cells/mouse, intraperitoneal administration), and the test substance was administered intraperitoneally 5 times at the doses of 0.001 to 3 mg/kg/day or orally at the doses of 0.3 to 10 mg/kg/day from the day of immunization. Nine to ten days after immunization, the spleen was resected from the mice to prepare a single cell suspension and the suspension was used as effector cell suspension. The ^51 Cr-release assay was carried out in the same way as in Experiment Example 3, using EL4 cells as the target cells to measure the cytotoxic activity.
The activity of allo-reactive cytotoxic T cell is indicated by lytic unit (LU) per spleen. One lytic unit (LU) is defined as the number of effector cells required to cause 25% lysis of 5×10^3 target cells. At the same time, the body weight of mouse and number of spleen cells were also determined.

[4] = cytotoxicity to cultured tumor cell line K562; conditions: human, k562 cells, Suppression
Description: (§1) Cytotoxicity to various human tumor cell lines was examined as follows:
(§2) Cells of human cell lines, K562, MOLT4, U937 and HL60 were respectively suspended to the concentration of 4×10^5 cells/ml in the RPMI1640 culture medium supplemented with 20% FCS. Fifty μl of each suspension was added to each well of a 96-well microtest plate to which 50 μl of the test solution had been added. After culturing the suspension at 37° C. in an atmosphere of 5% carbon dioxide for 72 hours, the absorbancy at 570 nm was measured in the same way as with the colorimetry using MTT in Experiment Example 1, and the percent suppression was calculated by the following formula, which was used as an index of cytotoxicity.

[5] = system: K562; assay: cytotoxicity to cultured tumor cell line K562
Description: as §1, §2

[6] = cytotoxicity to cultured tumor cell line MOLT4; assay type: cell-based, human; conditions: human, molt4 cells, read-out: Suppression
Description: as §1, §2

[7] = system: MOLT4; assay: cytotoxicity to cultured tumor cell line MOLT4; assay type: cell-based, human
Description: as §1, §2

[8] = 0.001 mg/kg/day ip × 5, Table 9C
[9] = 0.001 mg/kg/day po × 5, Table 9D
[10] = 0.003 mg/kg/day ip × 5, Table 9C
[11] = 0.003 mg/kg/day po × 5, Table 9D
[12] = 0.003 mg/kg/day po × 10, Table 9E
[13] = 0.01 mg/kg/day ip × 5, Table 9C
[14] = 0.01 mg/kg/day po × 5, Table 9D
[15] = 0.01 mg/kg/day po × 10, Table 9E
[16] = 0.03 mg/kg/day ip × 5, Table 9C
[17] = 0.03 mg/kg/day po × 5, Table 9D
[18] = 0.03 mg/kg/day po × 10, Table 9E
[19] = 0.1 mg/kg/day po × 10, Table 9E
[20] = 0.3 mg/kg/day po × 10, Table 9E

CCCCCCCCCCCCC/C=C/C[C@@H](O)[C@H](O)[C@@](N)(CO)C(=O)O [Example 5]
optical density (OD570) ([1]; 0.01 μg/ml): 0.915 | optical density (OD570) ([1]; 0.1 μg/ml): 0.322 | optical density (OD570) ([1]; 1 μg/ml): 0.239 | inhibition at 0.01 µg/mL ([1]; Mus musculus, CTLL-2, 68 h, 0.01 μg/ml, read-out: Suppression): 4.9% | inhibition at 0.1 µg/mL ([1]; Mus musculus, CTLL-2, 68 h, 0.1 μg/ml, read-out: Suppression): 68.3% | inhibition at 1 µg/mL ([1]; Mus musculus, CTLL-2, 68 h, 1 μg/ml, read-out: Suppression): 77.2% | IL-3 activity ([2]; 0.001 μg/ml): 22.0 U/ml | IL-3 activity ([2]; 0.01 μg/ml): 13.2 U/ml | IL-3 activity ([2]; 0.1 μg/ml): 12.0 U/ml | IL-3 activity ([2]; 1 μg/ml): 9.5 U/ml | inhibition at 0.001 µg/mL ([2]; Mus musculus, 24 h, 0.001 μg/ml, read-out: Suppression): 10.2% | inhibition at 0.01 µg/mL ([2]; Mus musculus, 24 h, 0.01 μg/ml, read-out: Suppression): 10.2% | inhibition at 0.1 µg/mL ([2]; Mus musculus, 24 h, 0.1 μg/ml, read-out: Suppression): 51% | inhibition at 1 µg/mL ([2]; Mus musculus, 24 h, 1 μg/ml, read-out: Suppression): 62.2% | Body weight 9 days after immunization [3, 8]: 23.6 ± 1.1 g | Cytotoxic T cell activity [3, 8]: 589 ± 415 LU/spleen | Cytotoxic T cell activity, suppression [3, 8]: 49.7% | Number of spleen cells [3, 8]: 1.8 ± 0.2 × 10^8 cell | Body weight 10 days after immunization [3, 9]: 24.5 ± 1.7 g | Cytotoxic T cell activity [3, 9]: 1929 ± 630 LU/spleen | Cytotoxic T cell activity, suppression [3, 9]: 0% | Number of spleen cells [3, 9]: 1.5 ± 0.2 × 10^8 | Body weight 9 days after immunization [3, 10]: 22.8 ± 1.6 g | Cytotoxic T cell activity [3, 10]: 473 ± 265 LU/spleen | Cytotoxic T cell activity, suppression [3, 10]: 59.6% | Number of spleen cells [3, 10]: 1.8 ± 0.2 × 10^8 cell | Body weight 10 days after immunization [3, 11]: 24.6 ± 1.1 g | Cytotoxic T cell activity [3, 11]: 1069 ± 400 LU/spleen | Cytotoxic T cell activity, suppression [3, 11]: 30.2% | Number of spleen cells [3, 11]: 1.6 ± 0.3 × 10^8 | Body weight 10 days after immunization [3, 12]: 25.0 ± 0.7 g | Cytotoxic T cell activity [3, 12]: 1936 ± 840 LU/spleen | Cytotoxic T cell activity, suppression [3, 12]: 30.5% | Number of spleen cells [3, 12]: 1.3 ± 0.3 × 10^8 | Body weight 9 days after immunization [3, 13]: 24.4 ± 1.1 g | Cytotoxic T cell activity [3, 13]: 443 ± 141 LU/spleen | Cytotoxic T cell activity, suppression [3, 13]: 62.1% | Number of spleen cells [3, 13]: 2.2 ± 0.3 × 10^8 cell | Body weight 10 days after immunization [3, 14]: 25.8 ± 1.3 g | Cytotoxic T cell activity [3, 14]: 709 ± 189 LU/spleen | Cytotoxic T cell activity, suppression [3, 14]: 53.7% | Number of spleen cells [3, 14]: 1.6 ± 0.3 × 10^8 | Body weight 10 days after immunization [3, 15]: 25.2 ± 1.3 g | Cytotoxic T cell activity [3, 15]: 996 ± 279 LU/spleen | Cytotoxic T cell activity, suppression [3, 15]: 64.2% | Number of spleen cells [3, 15]: 1.4 ± 0.2 × 10^8 | Body weight 9 days after immunization [3, 16]: 24.0 ± 2.2 g | Cytotoxic T cell activity [3, 16]: 352 ± 148 LU/spleen | Cytotoxic T cell activity, suppression [3, 16]: 69.9% | Number of spleen cells [3, 16]: 2.1 ± 0.5 × 10^8 cell | Body weight 10 days after immunization [3, 17]: 25.0 ± 1.2 g | Cytotoxic T cell activity [3, 17]: 684 ± 181 LU/spleen | Cytotoxic T cell activity, suppression [3, 17]: 55.3% | Number of spleen cells [3, 17]: 1.6 ± 0.3 × 10^8 | Body weight 10 days after immunization [3, 18]: 24.2 ± 1.3 g | Cytotoxic T cell activity [3, 18]: 799 ± 304 LU/spleen | Cytotoxic T cell activity, suppression [3, 18]: 71.3% | Number of spleen cells [3, 18]: 1.5 ± 0.3 × 10^8 | Body weight 9 days after immunization ([3]; 0.1 mg/kg/day ip × 5, Table 9C): 25.4 ± 1.9 g | Cytotoxic T cell activity ([3]; 0.1 mg/kg/day ip × 5, Table 9C): 158 ± 86 LU/spleen | Cytotoxic T cell activity, suppression ([3]; 0.1 mg/kg/day ip × 5, Table 9C): 86.5% | Number of spleen cells ([3]; 0.1 mg/kg/day ip × 5, Table 9C): 1.9 ± 0.3 × 10^8 cell | Body weight 10 days after immunization ([3]; 0.1 mg/kg/day po × 5, Table 9D): 25.2 ± 0.4 g | Cytotoxic T cell activity ([3]; 0.1 mg/kg/day po × 5, Table 9D): 638 ± 155 LU/spleen | Cytotoxic T cell activity, suppression ([3]; 0.1 mg/kg/day po × 5, Table 9D): 58.3% | Number of spleen cells ([3]; 0.1 mg/kg/day po × 5, Table 9D): 1.7 ± 0.4 × 10^8 | Body weight 10 days after immunization [3, 19]: 25.0 ± 0.7 g | Cytotoxic T cell activity [3, 19]: 731 ± 318 LU/spleen | Cytotoxic T cell activity, suppression [3, 19]: 73.8% | Number of spleen cells [3, 19]: 1.4 ± 0.4 × 10^8 | Body weight 9 days after immunization ([3]; 0.3 mg/kg/day ip × 5, Table 9C): 26.0 ± 1.6 g | Cytotoxic T cell activity ([3]; 0.3 mg/kg/day ip × 5, Table 9C): < 50 LU/spleen | Cytotoxic T cell activity, suppression ([3]; 0.3 mg/kg/day ip × 5, Table 9C): > 95% | Number of spleen cells ([3]; 0.3 mg/kg/day ip × 5, Table 9C): 1.9 ± 0.2 × 10^8 cell | Body weight 10 days after immunization ([3]; 0.3 mg/kg/day po × 5, Table 9D): 25.4 ± 0.5 g | Cytotoxic T cell activity ([3]; 0.3 mg/kg/day po × 5, Table 9D): 609 ± 197 LU/spleen | Cytotoxic T cell activity, suppression ([3]; 0.3 mg/kg/day po × 5, Table 9D): 60.2% | Number of spleen cells ([3]; 0.3 mg/kg/day po × 5, Table 9D): 1.6 ± 0.3 × 10^8 | Body weight 10 days after immunization [3, 20]: 24.2 ± 1.3 g | Cytotoxic T cell activity [3, 20]: 651 ± 257 LU/spleen | Cytotoxic T cell activity, suppression [3, 20]: 76.6% | Number of spleen cells [3, 20]: 1.6 ± 0.3 × 10^8 | Body weight 10 days after immunization ([3]; 1 mg/kg/day po × 5, Table 9D): 25.0 ± 1.4 g | Cytotoxic T cell activity ([3]; 1 mg/kg/day po × 5, Table 9D): 421 ± 12 LU/spleen | Cytotoxic T cell activity, suppression ([3]; 1 mg/kg/day po × 5, Table 9D): 72.5% | Number of spleen cells ([3]; 1 mg/kg/day po × 5, Table 9D): 1.7 ± 0.3 × 10^8 | Body weight 10 days after immunization ([3]; 1 mg/kg/day po × 10, Table 9E): 22.4 ± 0.5 g | Cytotoxic T cell activity ([3]; 1 mg/kg/day po × 10, Table 9E): 269 ± 179 LU/spleen | Cytotoxic T cell activity, suppression ([3]; 1 mg/kg/day po × 10, Table 9E): 90.3% | Number of spleen cells ([3]; 1 mg/kg/day po × 10, Table 9E): 1.5 ± 0.3 × 10^8 | induction of allo-reactive cytotoxic T cells (in words) ([3]; 5 times intraperitoneal or oral): strongly suppresses the induction of allo-reactive cytotoxic T cells | induction of allo-reactive cytotoxic T cells (in words), 10 oral administrations ([3]; 10 times oral, up to 0.03 mg/kg): significant suppressive activity up to the dose of 0.03 mg/kg | cytotoxicity at 72 h ([4]; 0.1 μg/ml): 2.2% | cytotoxicity at 72 h ([4]; 1 μg/ml): 4% | cytotoxicity at 72 h ([4]; 10 μg/ml): 4.7% | Absorbancy ([5]; 0.1 μg/ml): 1.111 ± 0.037 | Absorbancy ([5]; 1 μg/ml): 1.090 ± 0.044 | Absorbancy ([5]; 10 μg/ml): 1.083 ± 0.033 | cytotoxicity at 72 h ([6]; 0.1 μg/ml): 10.7% | cytotoxicity at 72 h ([6]; 1 μg/ml): 12.2% | cytotoxicity at 72 h ([6]; 10 μg/ml): 16.2% | Absorbancy ([7]; 0.1 μg/ml): 1.031 ± 0.035 | Absorbancy ([7]; 1 μg/ml): 1.013 ± 0.013 | Absorbancy ([7]; 10 μg/ml): 0.967 ± 0.006

Reference: patent US5068247A, “2-aminopentanoic acid compounds and their use as immunosuppressants” (priority 1989, dated 1991)
